Laboratory results published in patent US10702534B2, “Compositions and methods relating to the radioprotective effects of apilimod” (priority 2017, dated 2020).

System: acutely irradiated mice
Test: Prevention of radiation-induced mortality in mice after 8.5 Gy total body irradiation (survival analysis)
Format: in vivo, C57B1/6 male mice
Description: Eighty-six (86) C57B1/6 male mice were randomized into 6 groups. Group 1 (n=6) served as the untreated control group (no apilimod dimesylate or radiation). Animals in Groups 2-6 (n=16/group) were exposed to an 8.5 Gy dose of total body irradiation on Day 0. Radiation was generated with a 160 kilovolt potential (18-ma) source at a focal distance of 25 cm, hardened with a 0.35 mm A1 filtration system. Irradiation targeted the total body at a rate of approximately 1.0 Gy/minute. The total radiation dose and dose rate was measured in real time with a Farmer-type ionization chamber and a Fluke 35040 ATD dosimeter. No anesthesia was used during irradiation. Animals were monitored for survival twice daily and those that lost greater than 30% of their total starting body weight were euthanized. Animals in Groups 2 through 6 were dosed with apilimod dimesylate or vehicle exactly 3 hrs prior to radiation on Day 0 via oral gavage (PO) or intraperitoneal injection (IP) as indicated in Table 1 below. All animals were given ad libitum access to acidified drinking (pH 2.8-3.0) water from Day 3 through study completion.

## Cc1cccc(/C=N/Nc2cc(N3CCOCC3)nc(OCCc3ccccn3)n2)c1 [apilimod dimesylate]
60 mg/kg i.p. single dose 3 hrs prior to 8.5 Gy TBI, study to Day 31, vehicle 6.25%
  percentage of surviving animals: 43.75%
60 mg/kg i.p. single dose 3 hrs prior to 8.5 Gy TBI, vehicle 13.5 days
  median time of survival: 21 days
180 mg/kg p.o. single dose 3 hrs prior to 8.5 Gy TBI, did not reach statistical significance
  survival (survival analysis, in words): trend towards increased survival
Delivered by intraperitoneal injection, 60 mg/kg, 3 hrs prior to 8.5 Gy TBI
  survival protection (survival analysis, in words): significant survival protection
